SMILES strings stand for the structures.

The data set can be described thus: CCC extraction with DME of clarified fermentation broth from Clostridium acetobutylicum, GC and DNS assay. The data set is classed as physicochemical. Here is the method:
This example describes three different runs of the CCC with fermentation broth from Clostridium acetobutylicum. […] The fermentation was intentionally interrupted prior to completion.
The extraction column operated at room temperature (˜25° C.) throughout the column. Periodic extract and raffinate samples were taken and analyzed for the constituents in the extract and raffinate discharges.
This example describes three different runs. In all cases, the mass of solvent to the mass of feed ratio (S/F) was 0.9. In all example the fermentation broth was first centrifuged to removal all cellular matter. Thus, the feed solution was clarified. In the case of the first run, the following components were measured via gas chromatograph (GC) analysis using external standard calibration. The external standard was run prior to analyzing the samples to provide individual calibration between peak area and the respective constituent under measure. […] Acetate was the conjugate base of acetic acid. Butyrate was the conjugate base of butyric acid. All components were quantified in the extract and raffinate. Since the extract and raffinate are mostly water and DME dissolves in water to approximately 20 wt. %, the samples were allowed to degas over a 24 hour period.
During the run, samples were taken of the extract and raffinate. In the case of the extract, the bulk DME was removed by reduction of pressure and addition of heat to flash the DME from the water and other solution constituents.
Extract and raffinate samples were collected at periodic intervals during the CCC testing. […] Glucose was measured via a DNS (3,5-dinitrosalicylic acid) assay.
In cases where the extract formed a two phase solution, the extract samples were diluted with distilled water to create a single phase and homogenous sample prior to GC. The dilution factor was then used to correct the GC measurements for concentrations prior to dilution.

[1] abbreviates: Run 3, Extract Bot, time 31 min.
The mark [2] stands for this setting: Run 3, Extract Bot, time 37 min.
Setting [3] is: Run 3, Extract Top, time 31 min.
Where [4] appears, read: Run 3, Extract Top, time 37 min.

As for `CCO` [Ethanol, ethanol], the concentration in sample under setting [1] was 2290 µg/mL; the concentration in sample under setting [2] amounted to 2590 µg/mL; the concentration in sample under setting [3] turned out to be 1980 µg/mL; the concentration in sample under setting [4] amounted to 2110 µg/mL; the concentration in sample (Run 3, Extract, time 22 min) was determined as 1130 µg/mL; the concentration in sample (Run 3, Extract, time 27 min) is 1530 µg/mL. The concentration in sample is, setting by setting: (Run 3, Extract, time 43 min) 2110 µg/mL; (Run 3, Extract, time 70 min) 1850 µg/mL; (Run 3, Extract, time 74 min) 1710 µg/mL; (Run 3, Extract, time 78 min) 1700 µg/mL; (Run 3, Extract, time 82 min) 1920 µg/mL; (Run 3, Feed, time 0 min) 800 µg/mL. The concentration in sample reads like this: (Run 3, Raffinate, time 22 min) 340 µg/mL; (Run 3, Raffinate, time 27 min) 400 µg/mL; (Run 3, Raffinate, time 31 min) 420 µg/mL; (Run 3, Raffinate, time 37 min) 640 µg/mL; (Run 3, Raffinate, time 43 min) 890 µg/mL; (Run 3, Raffinate, time 70 min) 1560 µg/mL. Moreover, the concentration in sample was 710 µg/mL (Run 3, Raffinate, time 74 min); 240 µg/mL (Run 3, Raffinate, time 78 min); 1140 µg/mL (Run 3, Raffinate, time 82 min).
Consider `CC(=O)C(C)O` (stereo not shown) [Acetoin], for which the concentration in sample is 1640 µg/mL under setting [1]; 1880 µg/mL under setting [2]; 910 µg/mL under setting [3]; 1020 µg/mL under setting [4]; 960 µg/mL (Run 3, Extract, time 22 min); 1000 µg/mL (Run 3, Extract, time 27 min). Moreover, the concentration in sample runs as follows: (Run 3, Extract, time 43 min) 1830 µg/mL; (Run 3, Extract, time 70 min) 1620 µg/mL; (Run 3, Extract, time 74 min) 1460 µg/mL; (Run 3, Extract, time 78 min) 1600 µg/mL; (Run 3, Extract, time 82 min) 1650 µg/mL; (Run 3, Feed, time 0 min) 330 µg/mL. Also, the concentration in sample is, setting by setting: (Run 3, Raffinate, time 22 min) 70 µg/mL; (Run 3, Raffinate, time 27 min) 0 µg/mL; (Run 3, Raffinate, time 31 min) 0 µg/mL; (Run 3, Raffinate, time 37 min) 0 µg/mL; (Run 3, Raffinate, time 43 min) 0 µg/mL; (Run 3, Raffinate, time 70 min) 0 µg/mL. Also, the concentration in sample came out at 0 µg/mL (Run 3, Raffinate, time 74 min); 60 µg/mL (Run 3, Raffinate, time 78 min); 0 µg/mL (Run 3, Raffinate, time 82 min).
For `CC(=O)O` [acetate], where the note is “Run 1, pH greater than 5.5”, the “extraction into DME” value is “not extracted”. Further, the concentration in sample reads like this: under setting [1], 480 µg/mL; under setting [2], 0 µg/mL; under setting [3], 400 µg/mL; under setting [4], 370 µg/mL; (Run 3, Extract, time 22 min) 410 µg/mL; (Run 3, Extract, time 27 min) 0 µg/mL. In addition, the concentration in sample runs as follows: (Run 3, Extract, time 43 min) 480 µg/mL; (Run 3, Extract, time 70 min) 400 µg/mL; (Run 3, Extract, time 74 min) 0 µg/mL; (Run 3, Extract, time 78 min) 550 µg/mL; (Run 3, Extract, time 82 min) 400 µg/mL; (Run 3, Feed, time 0 min) 5470 µg/mL. The concentration in sample by setting is: (Run 3, Raffinate, time 22 min) 6780 µg/mL; (Run 3, Raffinate, time 27 min) 5370 µg/mL; (Run 3, Raffinate, time 31 min) 6420 µg/mL; (Run 3, Raffinate, time 37 min) 6010 µg/mL; (Run 3, Raffinate, time 43 min) 7110 µg/mL; (Run 3, Raffinate, time 70 min) 6840 µg/mL. Besides, the concentration in sample is 7770 µg/mL (Run 3, Raffinate, time 74 min); 7070 µg/mL (Run 3, Raffinate, time 78 min); 7290 µg/mL (Run 3, Raffinate, time 82 min).

For the origin of these results see patent publication US9630894B2, “Energy efficient method and apparatus for the extraction of biomolecules from dilute aqueous solution” (DYNASEP INC., priority 2012, dated 2017).
